Columns and labels:
[1] = system: renal cell carcinoma cell lines; settings: renal cell carcinoma cell lines (Pal 2014); cited from earlier work
[2] = system: bone marrow from healthy patients; assay: ex vivo colony assay in methylcellulose, normal bone marrow (control); format: cell-based, human; settings: 9-ING-41 alone
Method: (§1) In order to study the effects of 9-ING-41 (alone and in combination with Ruxolitinib) on growth and proliferation in MF, ex vivo colony assays were conducted using primary cells from patients with previously untreated MF and normal bone marrow. The experiments were designed to assess the number, size, and morphology of stem/progenitor cells present in blood both with and without treatment.
(§2) Peripheral blood mononuclear cells from MF patients and bone marrow from healthy patients (control) were plated in methylcellulose in duplicate, containing cytokines, in the presence of either DMSO only, 9-ING-41 only, or a combination of 9-ING-41 and Ruxolitinib (0.05uM). Colonies were counted ten days later, and colony growth frequency, distribution, and morphology were calculated.

[3] = system: peripheral blood mononuclear cells from MF patients; assay: ex vivo colony assay in methylcellulose, primary cells from MF patients; format: cell-based, human
Method: as §1, §2

In the case of `Cn1cc(C2=C(c3coc4ccc(F)cc34)C(=O)NC2=O)c2cc3c(cc21)OCO3` [9-ING-41, 3-(5-fluorobenzofuran-3-yl)-4-(5-methyl-5H-[1,3]dioxolo[4,5-f]indol-7-yl)pyrrole-2,5-dione], the “antiproliferative activity: cell-cycle effect” value [1] is listed as “G0-G1 and G2-M phase arrest”, the colony size [2] is listed as “modest increase in colony size” and the “primitive granulocytic/erythroid/macrophage/monocyte (GEMM) colony growth” value ([3]; 9-ING-41 only, MF cases as compared to normal, counted after ten days, FIGS. 1A, 1D, 2A, 2C) is listed as “increased relative to 9-ING-41 concentration”. For the same compound, the “size and presence of primitive colonies” value ([3]; MF cases 1 and 2, Ruxolitinib 0.05 µM where combined) was “increase in very large, fully differentiated primitive colonies” and the “presence of erythroid (BFU-E), granulocytic (CFU-G) and granulocytic/monocytic (CFU-GM) colonies” value ([3]; after addition of 9-ING-41, colonies counted ten days after plating, vs DMSO) was “remained proportionally the same”.

From US20230062278A1, “COMPOUNDS FOR THE TREATMENT OF MYELOFIBROSIS” (ACTUATE THERAPEUTICS, INC., priority 2019, published 2023)
